Measured values as given in patent publication US20250340848A1, “METHODS FOR CHEMICAL REPROGRAMMING AND PLURIPOTENT STEM CELLS” (Peking University, priority 2022, published 2025).

System: hADSCs
Assay: Three-stage conversion of hADSCs into hCiPSCs (methods of EXAMPLE 1), numbers of hCiPSC colonies
Assay type: cell-based, human
Source text: FIG. 1 illustrates a schematic of an exemplary method for converting human somatic cells into pluripotent stem cells. The method has 3 stages. During any of the 3 stages, any cell can proliferate and give rise to progeny cells. In stage 1, a first population of cells comprising somatic cells are contacted with a first composition for about 4-12 days. The first population of cells can comprise somatic cells (e.g., fibroblasts or primary human adult adipose derived mesenchymal stromal cells (hADSCs)). During and/or subsequent to contacting the first composition, at least a subset of the cells of the first population of cells or the progenies thereof are converted into a second population of cells. The second population of cells can comprise epithelial-like cells. In stage 2, the second population of cells or the progenies thereof are then contacted with a second composition for about 4-16 days. During and/or subsequent to contacting the second composition, at least a subset of the cells of the second population of cells or the progenies thereof are converted into a third population of cells. The third population of cells can comprise intermediate plastic state cells. In stage 3, the third population of cells or the progenies thereof are contacted with a third composition for about 6-12 days. During and/or subsequent to contacting the third composition, at least a subset of the cells of the third population of cells or the progenies thereof are converted into a fourth population of cells.
FIG. 2 illustrates a schematic of an exemplary method for converting human fibroblasts into pluripotent stem cells. The method can comprise 3 stages. During any of the 3 stages, any cell can proliferate and give rise to progeny cells. In stage 1, a first population of cells comprising fibroblasts is contacted with a first composition for about 8-10 days. During and/or subsequent to contacting the first composition, at least a subset of the cells of the first population of cells or the progenies thereof are converted into a second population of cells. The second population of cells can comprise epithelial-like cells. The epithelial-like cells express an increased amount of LIN28A, relative to the first population of cells or their progenies. In stage 2, the second population of cells or the progenies thereof are then contacted with a second composition for about 12-16 days. During and/or subsequent to contacting the second composition, at least a subset of the cells of the second population of cells or the progenies thereof are converted into a third population of cells. The third population of cells can comprise intermediate plastic state cells. The intermediate plastic state cells express both SALL4 and LIN28A. In stage 3, the third population of cells or the progenies thereof are contacted with a third composition for about 8-10 days. During and/or subsequent to contacting the third composition, at least a subset of the cells of the third population of cells or the progenies thereof are converted into a fourth population of cells. […] The second conversion medium can then be removed from the cells. […] The third stage 3 medium may allow the pluripotent stem cells or the progenies thereof to proliferate.
In one experiment, when converting hCiPSCs from somatic cell (e.g., hADSCs), hypoxia with 5% O2 was used in stage 1 conversion. After stage 1 conversion, cells were incubated with 21% O2. The induction medium was changed every 3-4 days. hADSCs were seeded at a density of 1×10^4 cells per well of a 12-well plate in 15% FBS-DMEM medium and would be changed into stage 1 conversion medium the next day. For stage 1 conversion, single layer epithelial-like cells induced from hADSCs would emerge at day 4-6 and approach 100% confluence at day 8-12. Then the medium was changed into stage 2 conversion medium. […]

[1] = factor removed from the stage 2 conversion medium, FIG. 17
[2] = factor removed from the stage 1 conversion medium, FIG. 4
[3] = factor removed from the stage 3 conversion medium, FIG. 19
[4] = various combinations supplemented to stage 1 conversion medium comprising CHIR99021, 616452, TTNPB and AKT Kinase Inhibitor, FIG. 5

## O=C(O)c1ccc2c(c1)nc(Nc1cccc(Cl)c1)c1ccncc12 [CX-4945, 5-(3-chloroanilino)benzo[c][2,6]naphthyridine-8-carboxylic acid]
AKTi and CX4945 included in the stage 2 conversion medium (Base), FIG. 18
  reprogramming efficiency: significantly improved the reprogramming efficiency

## COc1ccc(CCc2nc3cc(-c4c(C)noc4C)ccc3n2C[C@H](C)N2CCOCC2)cc1Cl [SGC-CBP30, 2-[2-(3-chloro-4-methoxyphenyl)ethyl]-5-(3,5-dimethyl-4-isoxazolyl)-1-[(2S)-2-(4-morpholinyl)propyl]-1H-benzimidazole]
[1]
  numbers of converted hCiPSCs: minimal numbers of converted hCiPSCs

## Cc1cnc(-c2cnc(NCCNc3ccc(C#N)cn3)nc2-c2ccc(Cl)cc2Cl)[nH]1 [CHIR99021, 6-[[2-[[4-(2,4-Dichlorophenyl)-5-(5-methyl-1H-imidazol-2-yl)-2-pyrimidinyl]amino]ethyl]amino]-3-pyridinecarbonitrile]
[2]
  numbers of converted hCiPSCs: minimal numbers of converted hCiPSCs
[1]
  numbers of converted hCiPSCs: minimal numbers of converted hCiPSCs

## Cc1cc(NC(=O)c2cccc(NC(=O)/C=C/CN(C)C)c2)ccc1Nc1nccc(-c2cccnc2)n1 [JNKIN8, 3-[[(E)-4-(dimethylamino)but-2-enoyl]amino]-N-[3-methyl-4-[(4-pyridin-3-ylpyrimidin-2-yl)amino]phenyl]benzamide]
[1]
  numbers of converted hCiPSCs: minimal numbers of converted hCiPSCs

## CN(C)CCOc1ccc(-c2nc(-c3ccc4c(c3)CCC4=NO)c(-c3ccncc3)[nH]2)cc1 [SB590885, 5-[2-[4-[2-(Dimethylamino)ethoxy]phenyl]-5-(4-pyridinyl)-1H-imidazol-4-yl]-2,3-dihydro-1H-inden-1-one oxime]
[3]
  numbers of converted hCiPSCs: minimal numbers of converted hCiPSCs

## Cc1cccc(-c2n[nH]cc2-c2ccc3ncccc3n2)n1 [compound 616452, 2-(3-(6-Methylpyridin-2-yl)-1H-pyrazol-4-yl)-1,5-naphthyridine]
[2]
  numbers of converted hCiPSCs: minimal numbers of converted hCiPSCs
[1]
  numbers of converted hCiPSCs: minimal numbers of converted hCiPSCs

## CNC1CCC(N(Cc2cccc(-c3ccncc3)c2)C(=O)c2sc3ccccc3c2Cl)CC1.Cl (stereo not drawn) [SAG, 3-chloro-N-[4-(methylamino)cyclohexyl]-N-[(3-pyridin-4-ylphenyl)methyl]-1-benzothiophene-2-carboxamide;hydrochloride]
[4]
  numbers of converted hCiPSCs: significantly increase the numbers of converted hCiPSCs

## C/C(=C\c1ccc(C(=O)O)cc1)c1ccc2c(c1)C(C)(C)CCC2(C)C [TTNPB, 4-[(E)-2-(5,6,7,8-Tetrahydro-5,5,8,8-tetramethyl-2-naphthalenyl)-1-propenyl]benzoic acid]
[2]
  numbers of converted hCiPSCs: minimal numbers of converted hCiPSCs
[1]
  numbers of converted hCiPSCs: minimal numbers of converted hCiPSCs

## N#CC[C@H](C1CCCC1)n1cc(-c2ncnc3[nH]ccc23)cn1 [Ruxolitinib, (3R)-3-cyclopentyl-3-[4-(7H-pyrrolo[2,3-d]pyrimidin-4-yl)pyrazol-1-yl]propanenitrile]
[4]
  numbers of converted hCiPSCs: significantly increase the numbers of converted hCiPSCs

## Nc1nccc2c1ncn2[C@@H]1C=C(CO)[C@@H](O)[C@H]1O [DZNep, (1S,2R,5R)-5-(4-Amino-1H-imidazo[4,5-c]pyridin-1-yl)-3-(hydroxymethyl)-3-cyclopentene-1,2-diol]
[1]
  numbers of converted hCiPSCs: minimal numbers of converted hCiPSCs
[4]
  numbers of converted hCiPSCs: significantly increase the numbers of converted hCiPSCs

## CCCC(CCC)C(=O)O [VPA, valproic acid]
[3]
  numbers of converted hCiPSCs: minimal numbers of converted hCiPSCs

## CC(C)N(C[C@H]1O[C@@H](n2cnc3c(N)ncnc32)[C@H](O)[C@@H]1O)[C@H]1C[C@@H](CCc2nc3cc(C(C)(C)C)ccc3[nH]2)C1 [EPZ5676, (2R,3R,4S,5R)-2-(6-amino-9H-purin-9-yl)-5-((((1r,3S)-3-(2-(5-(tert-butyl)-1H-benzo[d]imidazol-2-yl)ethyl)cyclobutyl)(isopropyl)amino)methyl)tetrahydrofuran-3,4-diol]
[1]
  numbers of converted hCiPSCs: reduced the numbers of converted hCiPSCs
[4]
  numbers of converted hCiPSCs: significantly increase the numbers of converted hCiPSCs

## O=C(NOC[C@H](O)CO)c1ccc(F)c(F)c1Nc1ccc(I)cc1F [PD0325901]
[3]
  numbers of converted hCiPSCs: minimal numbers of converted hCiPSCs

## CC(=O)N1CCN([C@H]2CCC[C@@H](NC(=O)c3cc4c(F)ccc(C)c4[nH]3)C2)CC1.O=C(O)C(F)(F)F [SETD2-IN-1, N-[(1R,3S)-3-(4-acetylpiperazin-1-yl)cyclohexyl]-4-fluoro-7-methyl-1H-indole-2-carboxamide;2,2,2-trifluoroacetic acid]
Supplemented to the stage 1 conversion medium, FIG. 6
  numbers of converted hCiPSCs: significantly increased the numbers of converted hCiPSCs

## Nc1ncnc2c1c(I)cn2[C@@H]1O[C@H](CO)[C@@H](O)[C@H]1O [5-ITU, (2R,3R,4S,5R)-2-(4-amino-5-iodopyrrolo[2,3-d]pyrimidin-7-yl)-5-(hydroxymethyl)oxolane-3,4-diol]
Added to the stage 2 conversion medium, relative to medium without it, FIGS. 7A-7B
  increase of the numbers of converted hCiPSCs: more than 5 fold
[1]
  numbers of converted hCiPSCs: minimal numbers of converted hCiPSCs
